Data on 2 compounds can be found in patent US10576105B2, “Mesenchymal stem cells with enhanced immunosuppressive capability” (Escape Therapeutics, Inc., priority 2015, dated 2020).

Assay type in all cases: cell-based, human
The test system of experiment [1] is HLA-G1. Description: HLA-G1 transcript expression in BMSCs by semi-quantitative RT-PCR. The note with it: mean±SEM. As for the experimental part: (§1) Adult BMSCs (passage 2) were obtained from Cell Applications, Inc. (San Diego, Calif.) and cultured in alpha-minimum essential medium (α-MEM) (Invitrogen) supplemented with 10% FBS and 1% penicillin/streptomycin (Invitrogen) at 37° C. in a humidified 5% CO2 incubator. At 70-80% confluence, cells were harvested with 0.25% trypsin-EDTA (Invitrogen) and expanded at 1:3 split ratios.
(§2) Demethylating treatment was carried out by culturing MSCs for 72 h with 5-aza-2′-deoxycytidine (5-aza-dC) (Sigma) at a final concentration of 10 μM or with the solvent DMSO as control.
(§3) After 72 h treatment, cells were trypsinized and total RNA extracted using RNeasy kit (Qiagen, Valencia, Calif.) according to the manufacturer's protocol. Semi-quantitative RT-PCR reactions were performed on a DNA Engine Peltier Thermal Cycler (Bio-Rad, Hercules, Calif.) as previously described. M. D. Nicola, et al., Human bone marrow stromal cells suppress T-lymphocyte proliferation induced by cellular or non-specific mitogenic stimuli, Blood 99: 3838-3843 (2002). Briefly, first strand cDNA was synthesized in 50 μl reactions from 2 μg total RNA using oligo dT primers and TaqMan reverse transcription reagents (Applied Biosystems, Foster City, Calif.). Reverse transcription (RT) reactions were carried out at 24° C. for 10 min, 48° C. for 1 h, and heat inactivation at 95° C. for 5 min. […] PCR program consisted of 94° C. for 4 min, followed by 30 cycles at 94° C. for 30 s, 60° C. for 1 min, and 72° C. for 1 min with a final extension at 72° C. for 10 min. PCR products were separated using 1.5% agarose gel in the presence of 0.5 μg/ml ethidium bromide and imaged using the FluorChem® HD2 Imaging System (Alpha Innotech Corporation, San Leandro, Calif.). Densitometry analysis was performed using AlphaEase FC software (Alpha Innotech Corporation). […]
(§4) Total RNA was extracted from both treated and untreated cells, and HLA-G1 and -G3 transcripts analyzed by semi-quantitative RT-PCR.
(§5) MSCs were treated with Valproic acid (VPA) (a known histone deacetylase inhibitor (HDAC) inhibitor) and HLA-G1, -G3 and HLA-G5 transcripts were evaluated by semi-quantitative RT-PCR.

Experiment [2] has as its system HLA-G5. In words: HLA-G5 mRNA level in BMSCs by RT-PCR. The settings on record: band intensity HLA-G5 divided by β2M, means±SEM, 3 runs. As for the experimental part:
as §1
as §3, with “min.” for “min. PCR products were separated using 1.5% agarose gel in the presence of 0.5 μg/ml ethidium bromide and imaged using the FluorChem® HD2 Imaging System (Alpha Innotech Corporation, San Leandro, Calif.). Densitometry analysis was performed using AlphaEase FC software (Alpha Innotech Corporation).”

Experiment [3] deals with HLA-G3. In words: HLA-G3 transcript expression in BMSCs by semi-quantitative RT-PCR. The settings on record: mean±SEM. The protocol:
as §1, §2
After 72 h treatment, cells were trypsinized and total RNA extracted using RNeasy kit (Qiagen, Valencia, Calif.) according to the manufacturer's protocol. Semi-quantitative RT-PCR reactions were performed on a DNA Engine Peltier Thermal Cycler (Bio-Rad, Hercules, Calif.) as previously described. M. D. Nicola, et al., Human bone marrow stromal cells suppress T-lymphocyte proliferation induced by cellular or non-specific mitogenic stimuli, Blood 99: 3838-3843 (2002). Briefly, first strand cDNA was synthesized in 50 μl reactions from 2 μg total RNA using oligo dT primers and TaqMan reverse transcription reagents (Applied Biosystems, Foster City, Calif.). Reverse transcription (RT) reactions were carried out at 24° C. for 10 min, 48° C. for 1 h, and heat inactivation at 95° C. for 5 min. RT samples were diluted at 1:4 in DNase, RNase free water and PCR performed in 20 μl reaction using Taq PCR master mix (Qiagen), 1 μl of diluted template, and HLA-G primers (Table 1). β-actin was used as an internal control. PCR program consisted of 94° C. for 4 min, followed by 30 cycles at 94° C. for 30 s, 60° C. for 1 min, and 72° C. for 1 min with a final extension at 72° C. for 10 min. PCR products were separated using 1.5% agarose gel in the presence of 0.5 μg/ml ethidium bromide and imaged using the FluorChem® HD2 Imaging System (Alpha Innotech Corporation, San Leandro, Calif.). Densitometry analysis was performed using AlphaEase FC software (Alpha Innotech Corporation). Relative expression levels were calculated from the ratio of integrated density values of HLA-G to that of β-actin.
as §4, §5

The test system of experiment [4] is HLA-G5. Description: HLA-G5 mRNA level in AMSCs by RT-PCR. The note with it: for Relative expression of HLA-G5: AMSCs, band intensity HLA-G5 divided by β2M, means±SEM, 3 runs. The protocol: (§6) AMSCs were isolated from adult human lipoaspirate of patients undergoing liposuction procedure. Briefly, abdominal subcutaneous adipose samples were washed with Hanks' balanced salt solutions (HBSS) (Invitrogen, Carlsbad, Calif.). After gentle shaking, the lower phase (containing stem cells, adipocytes, and blood) was washed and enzymatically dissociated with 0.075% collagenase type I (Sigma-Aldrich, St. Louis, Mo.)/HBSS for 1 h at 37° C. with gentle shaking. Collagenase was inactivated by adding fetal bovine serum (FBS) and samples were centrifuged at 400 g for 10 min at 25° C. The pellet was resuspended in RBC lysis buffer (eBioscience, San Diego, Calif.) and adherent cell masses were removed by sequential passing through 100, 70, and 40 μm mesh filters. Cells were then added into equal amounts of HISTOPAQUE-1077 (Sigma) and centrifuged at 400 g for 30 min to separate MSCs. Cells were seeded at 1-2×10^4 cells/cm^2 and grown in Dulbecco's modified eagle medium (DMEM, Invitrogen) supplemented with 10% FBS and 1% penicillin/streptomycin (Invitrogen) at 37° C. in a humidified 5% CO2 incubator and media changed every 2-3 d. After reaching 70-80% confluence, cells were washed with phosphate buffered saline (PBS), detached with 0.25% trypsin-EDTA (Invitrogen), then centrifuged and expanded at 1:3 split ratios.
After 72 h treatment, cells were trypsinized and total RNA extracted using RNeasy kit (Qiagen, Valencia, Calif.) according to the manufacturer's protocol. Semi-quantitative RT-PCR reactions were performed on a DNA Engine Peltier Thermal Cycler (Bio-Rad, Hercules, Calif.) as previously described. M. D. Nicola, et al., Human bone marrow stromal cells suppress T-lymphocyte proliferation induced by cellular or non-specific mitogenic stimuli, Blood 99: 3838-3843 (2002). Briefly, first strand cDNA was synthesized in 50 μl reactions from 2 μg total RNA using oligo dT primers and TaqMan reverse transcription reagents (Applied Biosystems, Foster City, Calif.). […]

Experiment [5] deals with HLA-G1. Description: HLA-G1 transcript expression in AMSCs by semi-quantitative RT-PCR. The note with it: for Relative HLA-G1 expression: 10 μM for 72 h, ratio HLA-G to β-actin, mean±SEM, 3 experiments. The protocol:
as §6, with “ratios. […]” for “ratios.”
After 72 h treatment, cells were trypsinized and total RNA extracted using RNeasy kit (Qiagen, Valencia, Calif.) according to the manufacturer's protocol. Semi-quantitative RT-PCR reactions were performed on a DNA Engine Peltier Thermal Cycler (Bio-Rad, Hercules, Calif.) as previously described. […] Relative expression levels were calculated from the ratio of integrated density values of HLA-G to that of β-actin.
as §4, §5

In experiment [6] the test system is HLA-G3. In words: HLA-G3 transcript expression in AMSCs by semi-quantitative RT-PCR. The settings on record: for Relative HLA-G3 expression: ratio HLA-G to β-actin, mean±SEM, 3 experiments. As for the experimental part:
as §6, §2
After 72 h treatment, cells were trypsinized and total RNA extracted using RNeasy kit (Qiagen, Valencia, Calif.) according to the manufacturer's protocol. Semi-quantitative RT-PCR reactions were performed on a DNA Engine Peltier Thermal Cycler (Bio-Rad, Hercules, Calif.) as previously described. M. D. Nicola, et al., Human bone marrow stromal cells suppress T-lymphocyte proliferation induced by cellular or non-specific mitogenic stimuli, Blood 99: 3838-3843 (2002). Briefly, first strand cDNA was synthesized in 50 μl reactions from 2 μg total RNA using oligo dT primers and TaqMan reverse transcription reagents (Applied Biosystems, Foster City, Calif.). Reverse transcription (RT) reactions were carried out at 24° C. for 10 min, 48° C. for 1 h, and heat inactivation at 95° C. for 5 min. […] Relative expression levels were calculated from the ratio of integrated density values of HLA-G to that of β-actin.
as §4, §5

The mark [7] stands for this setting: BMSCs passage 5 (P5), 10 μM for 72 h, ratio HLA-G to β-actin, 3 experiments.
Setting [8] is: BMSCs passage 10 (P10), 10 μM for 72 h, ratio HLA-G to β-actin, 3 experiments.

As for `CCCC(CCC)C(=O)O` [VPA, Valproic acid], the “Relative HLA-G1 expression” value was 0.08±0.02 in the experiment with HLA-G1 [1] (VPA-treated BMSCs passage 5 (P5), relative to β2M (FIG. 5A)) and 0.05±0.002 in the experiment on HLA-G1 [1] (VPA-treated BMSCs passage 10 (P10), relative to β2M (FIG. 5A)). The “Relative expression of HLA-G5” value in the experiment with HLA-G5 [2] was 0.006 ± 0.004; in the experiment with HLA-G5 [4], 0.006 ± 0.00. Moreover, the “Relative HLA-G3 expression” value is recorded as 0.04±0.01 with HLA-G3 [3] (VPA-treated BMSCs passage 5 (P5), FIG. 5B) and 0.01±0.001 in the experiment with HLA-G3 [3] (VPA-treated BMSCs passage 10 (P10), FIG. 5B). The “Upregulation of HLA-G5 mRNA” value in the experiment with HLA-G5 [4] (AMSCs treated with VPA (Table 2)) was “no upregulation”. For the same compound, in the experiment with HLA-G1 [5] (AMSCs treated with VPA, P5 and P10 (FIG. 5C)), the “Upregulation of HLA-G1 mRNA” value is “no upregulation”. In the experiment on HLA-G3 [6] (AMSCs treated with VPA, P5 and P10 (FIG. 5D)), the “Upregulation of HLA-G3 mRNA” value is reported as “no upregulation”.
On to `Nc1ncn([C@H]2C[C@H](O)[C@@H](CO)O2)c(=O)n1` [5-aza-dC, 4-amino-1-(2-deoxy-b-D-erythro-pentofuranosyl)-1,3,5-triazin-2(1H)-one], for which the “Relative HLA-G1 expression” value with HLA-G1 [1] (setting [7]) is 0.16±0.01; with HLA-G1 [1] (setting [8]), 0.24±0.01; with HLA-G1 [5] (AMSCs passage 5 (P5)) it was 0.15±0.02; in the experiment with HLA-G1 [5] (AMSCs passage 10 (P10)), 0.23±0.19. For the same compound, the “Relative expression of HLA-G5” value in the experiment on HLA-G5 [2] is 0.009 ± 0.00; with HLA-G5 [4], 0.009 ± 0.001. The “Relative HLA-G3 expression” value with HLA-G3 [3] (setting [7]) stood at 0.33±0.08; with HLA-G3 [3] (setting [8]), 0.38±0.07; with HLA-G3 [6] (AMSCs passage 5 (P5), 10 μM for 72 h), 0.31±0.05; with HLA-G3 [6] (AMSCs passage 10 (P10), 10 μM for 72 h), 0.27±0.06. Moreover, the “Relative HLA-G3 expression, fold higher than untreated” value with HLA-G3 [6] (AMSCs P5 and P10, 10 μM for 72 h, treated versus untreated) is approximately 2 fold.
